Positions count from the first letter of the chain named. Names may count otherwise. Where no end group is shown, it is not given here.
Experiments:
HLA DRB1 *1501 = HLA DRB1 *1501 (Homo sapiens, UniProt P01903+P01911); assay: IC50nM to purified HLA | DRB1 *1501
Method: (§1) Table printed on a drawing sheet, FIG. 1 (contd.)
Head of the field: IC50nM to purified HLA | DRB1 *1501
(§2) First copying reader's note: Continued from an earlier sheet of FIG. 1; decimal commas as printed, analog names encode substituted residues and positions, and some values are printed in italics or bold and some SEQ ID NOs underlined without a legend on this sheet.
Where the first naming reader finds the target: head: IC50nM to purified HLA | DRB1 *1501

HLA DRB1 *0701 = HLA DRB1 *0701 (Homo sapiens, UniProt P01903+P01911, A100R/A102G/A103Q/D57E/D86V/E43K/F76Y/K127E/L162R/M171V/P40G/Q125H/Q99D/R33Q/R42Y/R54Q/S133A/S66F/T210M/V115G/Y107V/Y59L/Y89S); assay: IC50nM to purified HLA | DRB1 *0701
Method: as §1
(§3) Head of the field: IC50nM to purified HLA | DRB1 *0701
as §2
(§4) Where the first naming reader finds the target: head: IC50nM to purified HLA | DRB1 *0701

HLA DRB1 *1101 = HLA DRB1 *1101 (Homo sapiens, UniProt P01903+P01911, A100R/A169T/A87E/I96F/K41T/L162R/M171V/P40S/Q125H/Q178H/Q39Y/Q99D/R42S/S66Y/T262R/V115G/W38E); assay: IC50nM to purified HLA | DRB1 *1101
Sequence of HLA DRB1 *1101 (P01903 26-254 limits assumed, other chains not shown): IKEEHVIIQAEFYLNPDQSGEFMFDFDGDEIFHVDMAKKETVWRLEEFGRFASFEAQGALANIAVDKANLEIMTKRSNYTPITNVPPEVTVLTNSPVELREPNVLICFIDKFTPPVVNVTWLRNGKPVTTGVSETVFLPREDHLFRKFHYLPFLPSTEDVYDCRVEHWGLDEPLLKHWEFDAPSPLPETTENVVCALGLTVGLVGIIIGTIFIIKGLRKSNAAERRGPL
Method: as §1
Head of the field: IC50nM to purified HLA | DRB1 *1101
as §2
Where the first naming reader finds the target: head: IC50nM to purified HLA | DRB1 *1101

HLA DRB1 *0404 = HLA DRB1 *0404 (Homo sapiens, UniProt P01903+P01911, A100R/A169T/F76Y/I96L/K127E/L162R/M171V/N62H/P40V/Q125Y/R42H/S133A/S149N/S66Y/V209L/W38E); assay: IC50nM to purified HLA | DRB1 *0404
Method: as §1
(§5) Head of the field: IC50nM to purified HLA | DRB1 *0404
as §2
(§6) Where the first naming reader finds the target: head: IC50nM to purified HLA | DRB1 *0404

HLA DRB5 *0101 = HLA DRB5 *0101 (Homo sapiens, UniProt P01903+Q30154); assay: IC50nM to purified HLA | DRB5 *0101
Method: as §1
Head of the field: IC50nM to purified HLA | DRB5 *0101
as §2
Where the first naming reader finds the target: head: IC50nM to purified HLA | DRB5 *0101

HLA DRB1 *0405 = HLA DRB1 *0405 (Homo sapiens, UniProt P01903+P01911, A100R/A169T/D86S/F76Y/I96L/K127E/L162R/M171V/N62H/P40V/Q125Y/R42H/S133A/S149N/S66Y/V115G/V209L/W38E); assay: IC50nM to purified HLA | DRB1 *0405
Method: as §1
(§7) Head of the field: IC50nM to purified HLA | DRB1 *0405
as §2
(§8) Where the first naming reader finds the target: head: IC50nM to purified HLA | DRB1 *0405

HLA DRB1 *0301 = HLA DRB1 *0301 (Homo sapiens, UniProt P01903+P01911, A100K/A102G/A103R/A169T/F55Y/I96L/K41T/L162R/M171V/P40S/Q125H/Q178H/Q39Y/R42S/S66N/T106N/T262R/W38E/Y61H); assay: IC50nM to purified HLA | DRB1 *0301
Sequence of HLA DRB1 *0301 (P01903 26-254 limits assumed, other chains not shown): as above
Method: as §1
(§9) Head of the field: IC50nM to purified HLA | DRB1 *0301
as §2
(§10) Where the first naming reader finds the target: head: IC50nM to purified HLA | DRB1 *0301

HLA DRB4 *0101 = HLA DRB4 *0101 (Homo sapiens, UniProt P01903+P13762, G164S); assay: IC50nM to purified HLA | DRB4 *0101
Sequence of HLA DRB4 *0101 (P01903 26-254 limits assumed): as the sequence (P01903 26-254 limits assumed, other chains not shown) above
Sequence of HLA DRB4 *0101 (P13762 whole entry G164S): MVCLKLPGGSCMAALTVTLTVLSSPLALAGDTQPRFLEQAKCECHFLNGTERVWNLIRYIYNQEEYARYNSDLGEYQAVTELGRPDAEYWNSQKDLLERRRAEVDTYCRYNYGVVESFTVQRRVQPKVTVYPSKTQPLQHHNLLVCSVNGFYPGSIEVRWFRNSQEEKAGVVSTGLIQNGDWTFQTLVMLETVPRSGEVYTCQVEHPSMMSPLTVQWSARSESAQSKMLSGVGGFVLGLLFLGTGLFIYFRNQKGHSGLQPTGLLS
Method: as §1
(§11) Head of the field: IC50nM to purified HLA | DRB4 *0101
as §2
(§12) Where the first naming reader finds the target: head: IC50nM to purified HLA | DRB4 *0101

HLA DRB1 *0901 = HLA DRB1 *0901 (Homo sapiens, UniProt P01903+P01911, A100R/A103E/D57H/D86V/F55Y/F60I/F76Y/I96F/K127E/L162R/M171V/P40D/Q125H/Q99R/R33Q/R42F/S133A/S66N/T210M/V115G/W38K/Y107V/Y59G/Y89S); assay: IC50nM to purified HLA | DRB1 *0901
Method: as §1
Head of the field: IC50nM to purified HLA | DRB1 *0901
as §2
Where the first naming reader finds the target: head: IC50nM to purified HLA | DRB1 *0901

HLA DRB1 *0101 = HLA DRB1 *0101 (Homo sapiens, UniProt P01903+P01911, A100R/D57E/F55L/F60I/F76Y/I96L/L162R/M171V/P40L/Q125E/R42F/V115G/Y59C); assay: IC50nM to purified HLA | DRB1 *0101
Method: as §1
(§13) Head of the field: IC50nM to purified HLA | DRB1 *0101
as §2
(§14) Where the first naming reader finds the target: head: IC50nM to purified HLA | DRB1 *0101

purified HLA DRB1 *0401 = purified HLA DRB1 *0401 (Homo sapiens, UniProt P01903+P01911, A100K/A169T/F76Y/I96L/K127E/L162R/M171V/N62H/P40V/Q125Y/R42H/S133A/S149N/S66Y/V115G/V209L/W38E); assay: IC50nM to purified HLA | DRB1 *0401
Method: (§15) Table printed on a drawing sheet, FIG. 1
Head of the field: IC50nM to purified HLA | DRB1 *0401
(§16) First copying reader's note: The comma is the decimal sign and the point a thousands separator (e.g. 21.831); some values are printed bold or italic and some SEQ ID NOs underlined, with no legend on the sheet.
Where the first naming reader finds the target: head: IC50nM to purified HLA | DRB1 *0401

purified HLA DRB4 *0101 = purified HLA DRB4 *0101 (Homo sapiens, UniProt P01903+P13762, G164S); assay: IC50nM to purified HLA | DRB4 *0101
Sequence of purified HLA DRB4 *0101 (P01903 26-254 limits assumed): as the sequence (P01903 26-254 limits assumed, other chains not shown) above
Sequence of purified HLA DRB4 *0101 (P13762 whole entry G164S): as the sequence (P13762 whole entry G164S) above
Method: as §15, §11, §16, §12

purified HLA DRB1 *0301 = purified HLA DRB1 *0301 (Homo sapiens, UniProt P01903+P01911, A100K/A102G/A103R/A169T/F55Y/I96L/K41T/L162R/M171V/P40S/Q125H/Q178H/Q39Y/R42S/S66N/T106N/T262R/W38E/Y61H); assay: IC50nM to purified HLA | DRB1 *0301
Sequence of purified HLA DRB1 *0301 (P01903 26-254 limits assumed, other chains not shown): as the sequence (P01903 26-254 limits assumed, other chains not shown) above
Method: as §15, §9, §16, §10

[1] = tested on: crude extract from E. coli; assay: In situ protease assay: TNFα variants in E. coli crude extract, SDS-PAGE and Western blot; assay type: in vitro ADME; conditions: for protease resistance of TNF variants (proteolytic cleavage inside the PADRE analogue sequence): E. coli crude extract, immunoblot, data not shown
Method: In order to test the protease resistance of selected, good binding PADRE analogues, their sequences were inserted by cloning techniques into a loop (loop EF) in human TNFα. Cell-free protein crude extract from E. coli expressing the modified TNFα molecules was prepared and proteolytic cleavage within the PADRE analogue sequences was analysed by SDS-PAGE followed by immunoblotting.
A synthetic cDNA encoding TNF (Y87S) was used as template. Oligonucleotides encoding PADRE or PADRE analogues were inserted into the template between A185 and E186 by PCR (cf. above). Resulting cDNAs were cloned into pET28b+(Novagen) and transformed into E. coli strain HMS 174. For recombinant expression, the resulting E. coli strains were cultured in fermentors in a defined medium at 37° C. Induction of recombinant expression was initiated by the addition of 1 mM of IPTG and temperature was lowered to 25° C. Cultures were harvested at 4, 8 or 24 h post-IPTG induction. TNFα variants were purified to >90% homogeneity by affinity chromatography using a TNFα specific monoclonal antibody as described in Nielsen et al., (2004), J Biol. Chem. 279:33593-33600. The purified TNFα variants were characterized by MALDI-TOF mass spectrometry to verify their identity and integrity.
In Situ Protease Assay: Analysis of the Protease Resistance of TNF-α Variants Using Western Blot
Aliquots (1 ml) of E. coli cell cultures, expressing the various TNF-α variants to be tested, were centrifuged (5000 g/5 min/5° C.) and the culture medium was discarded. Cell pellets were resuspended in 1 ml of 20 mM Bis-Tris, pH 6.0. Cell disruption was achieved by sonication (4×15 sec at an amplitude of 11 μm with 20 sec pauses between each sonication round). The resulting suspensions were centrifuged (20000 g/30 min/8° C.) and the supernatants (crude extracts) were transferred to fresh tubes. Crude extracts were then analysed for protein content using a Bradford protein assay (Biorad). Equivalent amounts of proteins were loaded onto 4-12% NuPAGE gels (Novex). After SDS-PAGE, proteins were transferred onto nitrocellulose membrane by semi-dry blotting. For immunoreaction, incubation with rabbit TNFα antiserum (1 h; dilution 1:10 000) and with horse radish peroxidase-conjugated secondary antibody (Dako P448) were carried out in Tris 50 mM, NaCl 150 mM, EDTA 5 mM, Igepal 0.1%, gelatine 0.5%. Detection was with ECL™ reagents (GE Healthcare).

purified HLA DRB1 *0405 = purified HLA DRB1 *0405 (Homo sapiens, UniProt P01903+P01911, A100R/A169T/D86S/F76Y/I96L/K127E/L162R/M171V/N62H/P40V/Q125Y/R42H/S133A/S149N/S66Y/V115G/V209L/W38E); assay: IC50nM to purified HLA | DRB1 *0405
Method: as §15, §7, §16, §8

purified HLA DRB1 *0802 = purified HLA DRB1 *0802 (Homo sapiens, UniProt P01903+P01911, A100R/A103L/A169T/F76Y/H45Y/I96F/K41T/L162R/M171V/P40S/Q125H/Q178H/Q39Y/Q99D/R218S/R42G/S66Y/V115G/W38E); assay: IC50nM to purified HLA | DRB1 *0802
Method: as §15
Head of the field: IC50nM to purified HLA | DRB1 *0802
as §16
Where the first naming reader finds the target: head: IC50nM to purified HLA | DRB1 *0802

purified HLA DRB1 *0404 = purified HLA DRB1 *0404 (Homo sapiens, UniProt P01903+P01911, A100R/A169T/F76Y/I96L/K127E/L162R/M171V/N62H/P40V/Q125Y/R42H/S133A/S149N/S66Y/V209L/W38E); assay: IC50nM to purified HLA | DRB1 *0404
Method: as §15, §5, §16, §6

purified HLA DRB1 *0701 = purified HLA DRB1 *0701 (Homo sapiens, UniProt P01903+P01911, A100R/A102G/A103Q/D57E/D86V/E43K/F76Y/K127E/L162R/M171V/P40G/Q125H/Q99D/R33Q/R42Y/R54Q/S133A/S66F/T210M/V115G/Y107V/Y59L/Y89S); assay: IC50nM to purified HLA | DRB1 *0701
Method: as §15, §3, §16, §4

purified HLA DRB1 *0101 = purified HLA DRB1 *0101 (Homo sapiens, UniProt P01903+P01911, A100R/D57E/F55L/F60I/F76Y/I96L/L162R/M171V/P40L/Q125E/R42F/V115G/Y59C); assay: IC50nM to purified HLA | DRB1 *0101
Method: as §15, §13, §16, §14

AAAIFVAAFTLHAAA [SEQ ID NO: 71]
IC50 (HLA DRB1 *1501): 9.7 nM
IC50 (HLA DRB1 *0701): 206 nM
IC50 (HLA DRB1 *1101): 12 nM
IC50 (HLA DRB1 *0404): 2.7 nM
IC50 (HLA DRB5 *0101): 21 nM
IC50 (HLA DRB1 *0405): 14 nM
IC50 (HLA DRB1 *0301): 442 nM
IC50 (HLA DRB4 *0101): 117 nM
IC50 (HLA DRB1 *0901): 80 nM
IC50 (HLA DRB1 *0101): 12 nM

AAAYFVAAFTLHAAA [SEQ ID NO: 23]
IC50 (purified HLA DRB1 *0401): 1 nM
IC50 (purified HLA DRB4 *0101): 81 nM
IC50 (purified HLA DRB1 *0301): 126 nM
protease resistance of PADRE analogue sequence ([1]; sequence inserted into loop EF of human TNFα, procedure of Example 2): increased resistance towards proteolytic degradation
IC50 (purified HLA DRB1 *0405): 4.4 nM
IC50 (purified HLA DRB1 *0802): 5.9 nM
IC50 (purified HLA DRB1 *0404): 0.67 nM
IC50 (purified HLA DRB1 *0701): 78 nM
IC50 (purified HLA DRB1 *0101): 3.4 nM

B1: SEQ ID NO: 78: TNFα (Y87S) variant with the 12 C-terminal residues of SEQ ID NO: 23 inserted (protein)
chain: MVRSSSRTPSDKPVAHVVANPQAEGQLQWLNRRANALLANGVELRDNQLVVPSEGLYLIYSQVLFKGQGCPSTHVLLTHTISRIAVSSQTKVNLLSAIKSPCQRETPEGAYFVAAFTLHAAAEAKPWYEPIYLGGVFQLEKGDRLSAEINRPDYLDFAESGQVYFGIIAL
modifications: Synthetic TNF variant incorporating pan-DR binding peptide
protease resistance of TNF variants (proteolytic cleavage inside the PADRE analogue sequence) [1]: protease resistant

B2: SEQ ID NO: 84: TNFα (Y87S) variant with the 12 C-terminal residues of SEQ ID NO: 69 inserted (protein)
chain: B1 chain with Y111I, F116W
modifications: Synthetic TNF variant incorporating pan-DR binding peptide
protease resistance of TNF variants (proteolytic cleavage inside the PADRE analogue sequence) [1]: protease resistant

B3: SEQ ID NO: 79: TNFα (Y87S) variant with the 12 C-terminal residues of SEQ ID NO: 29 inserted (protein)
chain: B1 chain with Y111H, F116N
modifications: Synthetic TNF variant incorporating pan-DR binding peptide
protease resistance of TNF variants (proteolytic cleavage inside the PADRE analogue sequence) [1]: protease resistant

— US9789181B2, “PAN-DR binding polypeptides and uses thereof” (Epimmune Inc., priority 2009, dated 2017)
